System: chronic Foot Rot
Test: Chronic Foot Rot with proliferative mass in a heifer (Example 25)
Format: in vivo, American Shorthorn heifer
Details: injectable antibiotic for 7 days, before cream treatment
Text: A two-year old female American Shorthorn heifer was presented with lameness and a proliferative mass (3″ in diameter)with associated swelling and large dense scab between the digits of the left hind foot diagnosed as chronic Foot Rot. […] After 4 months lameness reoccurred and the area again became inflamed. […] A surgical consultation determined that the area needed to be surgically excised under general anesthesia. Due to late term pregnancy, surgery was postponed until after delivery. While waiting for surgery, the cream of Example 18 was applied once daily by massaging the cream into the area between the digits. […] No surgery or further antibiotic therapy was anticipated. FIG. 11A depicts the infection in the left hind foot before treatment and FIG. 11B depicts the infected area after 3 weeks of treatment with the cream of Example 18.

**Q.** How did the lameness turn out when `CS(=O)(=O)c1ccc([C@@H](O)[C@@H](CF)NC(=O)C(Cl)Cl)cc1` [Nuflor] was run?
**A.** reduced lameness

**Q.** What about the “reduction of mass size” value of the same compound?
**A.** approximately ⅓

Reference: patent US10500219B2, “Compositions and methods for tissue regeneration” (ORBIS HEALTH SOLUTIONS LLC, priority 2012, dated 2019)
